# Test results from article PMC3020970, “K70Q Adds High-Level Tenofovir Resistance to “Q151M Complex” HIV Reverse Transcriptase through the Enhanced Discrimination Mechanism” (PLoS ONE, 2011).
# Several values for one entry are separate records, joined by “and”; a condition that tells them apart may be missing. Equal entries are not always repeated.
# Experiments:
# Test in all cases: Pre-steady state kinetics of binding and incorporation
# Format in all cases: biochemical
# HIV-1 RT K70Q = target: T1, HIV-1 RT K70Q (Human immunodeficiency virus type 1 group M subtype B, UniProt P03366, K669Q)
# T1 construct: made in house; host or cells: Escherichia coli BL21
# Method: (§1) The reactions were quenched at various times (10 ms to 5 s) by adding EDTA to a final concentration of 50 mM. The amounts of product (P18-dAMP) were quantitated and fit to the following burst equation: [drawing 1] (1) where A is the amplitude of the burst phase that represents the RT-DNA complex at the start of the reaction, k obs is the observed burst rate constant for dNTP incorporation, k ss is the steady state rate constant, and t is the reaction time. The rate constant of the linear phase (kcat) can be estimated by dividing the slope of the linear phase by the enzyme concentration. The active site concentration and template/primer binding affinity (KD-DNA) were determined by plotting the amplitude (A) against the concentration of template/primer. The data were fit using non-linear regression to a quadratic equation: [drawing 2] (2) where KD is the dissociation constant for the RT-DNA complex, and [RT] is the concentration of active polymerase molecules. Subsequent biochemical experiments were performed using corrected active site concentrations, [43].
# (§2) HIV-1 RT (50 nM active sites) was pre-incubated with 50 nM T31/P18 in one syringe (Syringe A), whereas varying concentrations of dNTP and 10 mM MgCl2 were kept in another syringe (Syringe B). The solutions were rapidly mixed to initiate reactions, which were subsequently quenched at various times (5 ms to 10 s) by adding EDTA to a final concentration of 50 mM. The products from each quenched reaction were resolved, quantitated, and plotted as described above. The data were fit by non-linear regression to the burst equation (Eq 1).
# (§3) To obtain the dissociation constant KD-dNTP for dNTP binding to the RT-DNA complex, the observed burst rates (kobs) were fit to the hyperbolic equation (Eq. 3) using nonlinear regression: [drawing 3] (3) where kpol is the optimal rate of dNTP incorporation.
# HIV-1 RT Q151Mc = target: T2, HIV-1 RT Q151Mc (Human immunodeficiency virus type 1 group M subtype B, UniProt P03366, A661V/F676L/F715Y/Q750M/V674I)
# T2 construct: made in house; host or cells: Escherichia coli BL21
# Method: as §1, with “Determination of active site concentrations in the different preparations of WT and mutant RTs were performed using pre-steady state burst experiments. […] The reactions” for “The reactions”
# as §2, §3
# (§4) The kinetics of TFV incorporation by the WT and mutant enzymes were carried out in a manner similar to that employed for natural dNTP substrate except the time of reactions. It was noted that the mutant enzymes required longer time to incorporate TFV compared to the WT HIV-1 RT (detailed in the Results section).
# HIV-1 RT WT = target: T3, HIV-1 RT WT (Human immunodeficiency virus type 1 group M subtype B, UniProt P03366)
# T3 construct: made in house; host or cells: Escherichia coli BL21
# Method: as §1, with “Determination of active site concentrations in the different preparations of WT and mutant RTs were performed using pre-steady state burst experiments. […] The reactions” for “The reactions”
# as §2, §3, §4
# HIV-1 RT K70Q/Q151Mc = target: T4, HIV-1 RT K70Q/Q151Mc (Human immunodeficiency virus type 1 group M subtype B, UniProt P03366, A661V/F676L/F715Y/K669Q/Q750M/V674I)
# T4 construct: made in house; host or cells: Escherichia coli BL21
# Method: as §1, with “Determination of active site concentrations in the different preparations of WT and mutant RTs were performed using pre-steady state burst experiments. […] The reactions” for “The reactions”
# as §2, §3, §4
structure (smiles),measurement,setting,value
"CC(Cn1cnc2c(N)ncnc21)OCP(=O)(O)OP(=O)(O)OP(=O)(O)O (stereo in doubt) [TFV-DP, tenofovir-diphosphate]",Selectivity (k pol/Kd)dATP/(k pol/Kd)TFV-DP,HIV-1 RT K70Q; K70Q RT,6.1
same,k pol/Kd,HIV-1 RT K70Q; K70Q RT,360000 M⁻¹ s⁻¹ and 360000 ± 80000 M⁻¹ s⁻¹
same,Reduced affinity for TFV than the WT enzyme,HIV-1 RT K70Q; K70Q RT vs WT RT,more than 4.5 fold
same,k pol,"HIV-1 RT K70Q; K70Q RT, T31/P18, 37°C",3.1 s⁻¹ and 3.1 ± 0.4 s⁻¹
same,Kd,"HIV-1 RT K70Q; K70Q RT, binding to RT-DNA complex",8.6 ± 1.5 µM
same,Selectivity (k pol/Kd)dATP/(k pol/Kd)TFV-DP,HIV-1 RT Q151Mc,11
same,k pol/Kd,HIV-1 RT Q151Mc,300000 M⁻¹ s⁻¹ and 300000 ± 60000 M⁻¹ s⁻¹
same,k pol,"HIV-1 RT Q151Mc; T31/P18, 37°C",1.3 ± 0.03 s⁻¹
same,Kd,HIV-1 RT Q151Mc; binding to RT-DNA complex,4.3 ± 0.8 µM
same,Selectivity (k pol/Kd)dATP/(k pol/Kd)TFV-DP,HIV-1 RT WT,1.6
same,k pol/Kd,HIV-1 RT WT,1.47e+06 M⁻¹ s⁻¹ and 1.47e+06 ± 70000 M⁻¹ s⁻¹
same,k pol,"HIV-1 RT WT; T31/P18, 37°C",2.8 s⁻¹ and 2.8 ± 0.08 s⁻¹
same,Kd,HIV-1 RT WT; binding to RT-DNA complex,1.9 ± 0.2 µM
same,Selectivity (k pol/Kd)dATP/(k pol/Kd)TFV-DP,HIV-1 RT K70Q/Q151Mc; K70Q/Q151Mc RT,26.3
same,k pol/Kd,HIV-1 RT K70Q/Q151Mc; K70Q/Q151Mc RT,110000 M⁻¹ s⁻¹ and 110000 ± 30000 M⁻¹ s⁻¹
same,Reduced affinity for TFV than the WT enzyme,HIV-1 RT K70Q/Q151Mc; K70Q/Q151Mc RT vs WT RT,more than 4.5 fold
same,k pol,"HIV-1 RT K70Q/Q151Mc; K70Q/Q151Mc RT, T31/P18, 37°C",1.0 ± 0.03 s⁻¹
same,Kd,"HIV-1 RT K70Q/Q151Mc; K70Q/Q151Mc RT, binding to RT-DNA complex",8.9 ± 2.1 µM
